In ChEMBL document CHEMBL3507680, “University of Dundee, Gates Library screen for HepG2 cell viability”:

Experiment: Human HepG2 cell viability assay in 384 well format
Assay type: toxicity, cell-based
Design: dose 125 nL, time 70.5 hour; concentration not given beside the values
Settings: HepG2 cells, read-out: Inhibition

Row | Structure (SMILES) | cytotoxicity at 70.5 h [%]
1 | CC(=O)Nc1ccc2nc(-c3nccn3CC(C)(C)CO)ccc2c1 | -11
2 | CC1=CC(C)(C)N(CN2C(=O)c3ccccc3C2=O)c2ccccc21 | 0.789
3 | COc1cccc(COCC(=O)N2CCCC(n3cccn3)C2)c1 (configuration not stated) | -4.65
4 | c1c(CN2CCCCC2)nc2n1CCNC2 | 8.55
5 | Cc1oc(-c2ccsc2)nc1CN1CC[C@@H]2CCCC[C@H]2C1 | 13.8
6 | CCn1ccnc1CN1CCCN(C(=O)c2scnc2C)CC1 | -11.5
7 | CCN(CC1CCOC1)C(=O)c1cc(OC)c2c(c1)OCCO2 (configuration not stated) | 0.516
8 | Cc1cnc(N2CCc3c(c(COc4cncnc4)nn3C)C2)nc1 | -6.03
9 | CN(C)C(=O)N1Cc2nnn(C)c2C(COCC2CC2)C1 (configuration not stated) | -6.79
10 | Cc1nn(C)c(N2CCOCC2)c1CNCc1ccc2c(c1)OCO2 | -5.61
11 | Cc1cccnc1NCCNC(=O)[C@H]1CNC[C@@H](C(=O)N2CCCC2)C1 | 0.731
12 | COc1cccc(C2CCCN2C(=O)c2cc3c(nc2OC)CCC3)c1 (configuration not stated) | -2.74
13 | CCc1n[nH]c(C2CN(C(=O)c3ccc4c(c3)COC4)CCO2)n1 (configuration not stated) | 18
14 | CCNc1ncc(C(=O)N2CCc3c(nc(C)nc3N(C)C)C2)cn1 | 25.4
15 | CC(=O)NCCNC(=O)C1(N2CCCCC2)Cc2ccccc2C1 | -7.44
16 | CC(C)CC(C)N(C)C(=O)CCn1cccn1 (configuration not stated) | -6.33
17 | CN(C)C(=O)CN1CCC2(CC1)COc1ccccc1S(=O)(=O)N(C)C2 | 0.16
18 | COc1ccc(C(C)NCc2c[nH]nc2C)cc1OC (configuration not stated) | -8.7
19 | CNC(=O)CC1CC2(CCN(Cc3nccs3)CC2)c2ccccc21 (configuration not stated) | 0.687

Row | Structure (SMILES) | cytotoxicity at 70.5 h [%]
20 | CCc1nnc(CN2CCc3ccc(S(N)(=O)=O)cc32)o1 | -0.999
21 | Cc1ccc(CN2C[C@H]3C[C@H](C(=O)Nc4cccnc4)[C@@H](C2)O3)cc1 | 2.68
22 | CN(CC1CCOCC1)C1CCCN(c2ccccn2)C1 (configuration not stated) | -7.08
23 | COc1ccccc1OCCNS(=O)(=O)N1CCOCC1 | -11.3
24 | CC(C)N(CCO)C(=O)C1CCC(=O)N(CCc2ccc(Cl)cc2)C1 (configuration not stated) | -1.21
25 | O=C(NCCN1CCOCC1)Nc1cnc2cc(Cl)ccc2c1O | 12.7
26 | CS(=O)(=O)c1cccc(S(=O)(=O)NC(=O)CC2CCCC2)c1 | -3.3
27 | Cn1ncc(NCc2cccc(F)c2)c(Cl)c1=O | -13.3
28 | Cc1cc(C)n(CC2CCCN2CC(=O)Nc2nncs2)n1 (configuration not stated) | 30
29 | O=C(CCc1nc(Cl)n[nH]1)N1C[C@@H](CN2CCCCC2)[C@@H](CO)C1 | -6.93
30 | CCc1noc(CN2CCN(C(=O)N(C)C)CC2)n1 | 20.5
31 | CN(C)c1nccc(NCc2cc(-c3cccs3)n[nH]2)n1 | 4.36
32 | CCn1nc(C)c(CN(CCOC)C(=O)c2ccccc2N(C)C)c1C | -2.9
33 | CC(C)CNC(=O)c1nc(COc2ccc3c(c2)OCO3)no1 | -7.9
34 | COc1cccc(Cn2c(C)c(C)oc2=O)c1OC | 1.78
35 | CN(CCCc1cc(-c2ccc(F)cc2)n(C)n1)CC(=O)NC(N)=O | -8.03
36 | CC(C)(C)CC(=O)NCC(=O)Nc1ccn(Cc2ccccc2)n1 | -11
37 | CCc1nc(CN2CCC(C(=O)N(C)C)CC2)cs1 | 0.679
38 | COc1ncccc1CNC1CCc2c(ccc(=O)n2C)C1 (configuration not stated) | -1.32

Row | Structure (SMILES) | cytotoxicity at 70.5 h [%]
39 | CCCn1[nH]cc/c1=N\C(=O)CN1CCC[C@H]1CO | 2.76
40 | Fc1ccc(N2CCCN(c3ccc(Cn4ccnc4)cn3)CC2)cc1 | 2.18
41 | Cc1ccc(C(=O)N(Cc2ccc(F)cc2F)C2CC2)c(=O)[nH]1 | -2.76
42 | Cc1nc(C2CCCN2CC(=O)N2CCCc3ccccc32)no1 (configuration not stated) | -6.37
43 | Cc1cc(CN(C)C2CCCN(c3cccnn3)C2)on1 (configuration not stated) | 28.9
44 | Cc1cnn(CCNCc2ccccc2C#N)c1 | 13.2
45 | Cc1ccc(C(=O)Nc2ccc(N3CCC(O)CC3)c(C#N)c2)s1 | 29.7
46 | O=C(c1cc(-c2ccn(CC3CC3)n2)n2ccccc12)N1CCOCC1 | -2.8
47 | O=C(O)CCc1cc2n(n1)CCCN(C(=O)c1cc3ccccc3s1)C2 | 30
48 | COCc1nc(Cn2c(C)cc(C(F)(F)F)cc2=O)no1 | 23.9
49 | COc1ccccc1C1CC(=O)Nc2nc(N3CCCCC3)sc21 (configuration not stated) | -18.8
50 | Cn1nc(C2CCN(C(=O)c3cnccn3)C2)cc1CCO (configuration not stated) | -2.35
51 | CCC(NC(=O)NCc1nncn1CC)c1ccc(OC)cc1 (configuration not stated) | -9.27
52 | Cc1cc(C(=O)N(C)Cc2ccccc2OCC(C)C)cc(=O)[nH]1 | 15.6
53 | CCCn1c(NCCc2ccccc2)nc2c(C)nn(C)c2c1=O | 11.6
54 | CS(=O)(=O)N1CC[C@H]2OCC[C@@]2(C(=O)NCc2ccccn2)C1 | -2.32
55 | Cn1ccnc1C(=O)N1CCC2(CCN2Cc2ccc(F)cc2)C1 (configuration not stated) | -3.38
56 | CNC(=O)Cc1noc(-c2cc3c(s2)CCC(C)(C)C3)n1 | -3.09
57 | c1ccc(OC2COC3(CCN(CC4CC4)CC3)C2)nc1 (configuration not stated) | 2.65
